Results published in ChEMBL document CHEMBL2040718, “Synthesis of friedelan triterpenoid analogs with DNA topoisomerase IIα inhibitory activity and their molecular docking studies” (Eur J Med Chem, 2012).
The source made the active and inactive calls. The rule behind the calls is not given here.

Columns and labels:
[1] = biological target: DNA topoisomerase 2-alpha (Homo sapiens) (UniProt P11388); test: Inhibition of human topoisomerase 2alpha-mediated relaxation of supercoiled pBR322 plasmid DNA after 15 mins using ethidium bromide staining by agarose-gel electrophoresis
[2] = biological target: DNA topoisomerase 2-alpha (Homo sapiens) (UniProt P11388); test: Partial inhibition of human topoisomerase 2alpha-mediated relaxation of supercoiled pBR322 plasmid DNA at 25 uM after 15 mins using ethidium bromide staining by agarose-gel electrophoresis
[3] = biological target: DNA topoisomerase 2-alpha (Homo sapiens) (UniProt P11388); test: Complete inhibition of human topoisomerase 2alpha-mediated relaxation of supercoiled pBR322 plasmid DNA at 100 uM after 15 mins using ethidium bromide staining by agarose-gel electrophoresis
[4] = biological target: DNA topoisomerase 2-alpha (Homo sapiens) (UniProt P11388); test: Complete inhibition of human topoisomerase 2alpha-mediated relaxation of supercoiled pBR322 plasmid DNA at 50 uM after 15 mins using ethidium bromide staining by agarose-gel electrophoresis

DNA topoisomerase 2-alpha (Homo sapiens), sequence (P11388 whole entry): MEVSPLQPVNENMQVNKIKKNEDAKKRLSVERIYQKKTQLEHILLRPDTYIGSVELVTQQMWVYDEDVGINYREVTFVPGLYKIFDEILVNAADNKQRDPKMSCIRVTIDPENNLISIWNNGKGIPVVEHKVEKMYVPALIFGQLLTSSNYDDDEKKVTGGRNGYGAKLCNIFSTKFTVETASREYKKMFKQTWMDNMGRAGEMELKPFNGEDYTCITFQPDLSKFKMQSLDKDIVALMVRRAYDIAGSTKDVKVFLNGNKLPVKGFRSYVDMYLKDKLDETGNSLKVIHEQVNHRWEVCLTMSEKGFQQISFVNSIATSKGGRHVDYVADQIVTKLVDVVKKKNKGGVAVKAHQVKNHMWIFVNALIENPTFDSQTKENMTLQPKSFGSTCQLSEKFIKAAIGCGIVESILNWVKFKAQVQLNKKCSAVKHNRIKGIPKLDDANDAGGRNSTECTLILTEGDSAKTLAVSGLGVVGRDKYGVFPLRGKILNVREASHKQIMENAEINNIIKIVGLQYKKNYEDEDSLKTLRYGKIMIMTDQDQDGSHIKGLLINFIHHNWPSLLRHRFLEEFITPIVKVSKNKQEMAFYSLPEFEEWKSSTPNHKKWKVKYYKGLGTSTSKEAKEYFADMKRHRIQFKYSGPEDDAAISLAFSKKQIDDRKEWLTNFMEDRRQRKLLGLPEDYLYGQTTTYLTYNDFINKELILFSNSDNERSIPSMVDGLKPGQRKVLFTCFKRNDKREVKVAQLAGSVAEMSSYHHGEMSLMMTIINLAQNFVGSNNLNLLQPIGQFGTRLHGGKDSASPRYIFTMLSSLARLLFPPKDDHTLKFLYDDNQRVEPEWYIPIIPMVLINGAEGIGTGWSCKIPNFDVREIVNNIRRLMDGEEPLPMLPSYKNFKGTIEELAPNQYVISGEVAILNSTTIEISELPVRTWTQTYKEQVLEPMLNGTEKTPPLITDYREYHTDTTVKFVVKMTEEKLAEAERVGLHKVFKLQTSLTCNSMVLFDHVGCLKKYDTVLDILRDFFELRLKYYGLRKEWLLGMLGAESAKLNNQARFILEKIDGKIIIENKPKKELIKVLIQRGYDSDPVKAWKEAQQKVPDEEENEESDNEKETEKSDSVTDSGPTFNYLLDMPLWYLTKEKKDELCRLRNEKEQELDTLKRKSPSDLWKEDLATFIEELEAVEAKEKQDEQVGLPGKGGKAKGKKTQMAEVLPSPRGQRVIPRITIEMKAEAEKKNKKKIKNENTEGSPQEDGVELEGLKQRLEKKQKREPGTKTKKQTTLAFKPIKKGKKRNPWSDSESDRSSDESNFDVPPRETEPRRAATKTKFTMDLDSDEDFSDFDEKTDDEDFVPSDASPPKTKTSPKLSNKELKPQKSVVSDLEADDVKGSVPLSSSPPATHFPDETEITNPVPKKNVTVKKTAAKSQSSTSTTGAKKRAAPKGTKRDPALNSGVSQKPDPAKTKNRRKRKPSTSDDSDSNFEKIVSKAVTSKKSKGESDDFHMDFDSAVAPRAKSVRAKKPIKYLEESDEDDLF

Row | inhibition [1] | inhibition [2] | inhibition [3] | inhibition [4] | SMILES
1 | Dose-dependent effect | Active | Active | Active | CC(=O)[C@@]1(C)CC[C@H]2[C@@](C)(CC[C@@]3(C)[C@@H]4CC(C)(C)CC[C@]4(C)CC[C@]23C)[C@@H]1CC(=O)O
2 | Dose-dependent effect | Active | Active | Active | C[C@@H](C(=O)O)[C@@]1(C)CC[C@H]2[C@@](C)(CC[C@@]3(C)[C@@H]4CC(C)(C)CC[C@]4(C)CC[C@]23C)[C@@H]1CC(=O)O
